Reference: patent publication US20020010210A1, “PHARMACEUTICAL PREPARATION AND METHOD FOR TREATING CANCER” (priority 1997, published 2002)

Experiments:
[1] = test system: bovine aortic endothelial BAE-2 cells; assay: Intracellular ascorbic acid cumulative amount in BAE-2 cells (Example 2); format: cell-based; conditions: 5 μM in culturing medium, cultured 20 hours
Experimental: About 6×10^5 bovine aortic endothelial BAE-2 cells (available from Hiroshima Prefecture University) were sowed on a 60 mmφ plate and cultured in a minimum essential culturing medium containing 20% dialyzed bovine fetus serum (available from Moregate) for 2 hours. After displacing with the same culturing medium containing 5 μM (in the case of magnesium ascorbic acid-2-phosphate, 50 μM) of ascorbic acid or a derivative thereof, the cells were further cultured for 20 hours.

[2] = test system: spontaneous breast cancer rat cells (SST-2); assay: Lung metastasis of implanted SST-2 cells in SHR rats (Example 3); format: in vivo; conditions: 35 days after implantation; for Number of Metastasis Colonies (average), Peroral Administration: 1 mg/rat perorally from day of implantation to day 34; for Number of Metastasis Colonies (average), Subcutaneous Injection: 1 mg/rat subcutaneous injection from day of implantation to day 34
Experimental: 1×100,000 spontaneous breast cancer rat cells (SST-2) were subcutaneously implanted into the back of a rat (SHR rat) (5 rats per group) suffering from spontaneous hypertension. After 35 days, the rats were sacrificed, and the lung weight and the number of colonies formed were measured to examine the degree of metastasis of SST-2 to the lung. The compounds shown in Tables 3 and 4 each was administered perorally or through subcutaneous injection in a dose of 1 mg/rat over the period from the day of implantation to 34 days after implantation. The number of colonies formed was compared with that in the control group not subjected to any treatment, to examine metastasis to the lung.

Structure (SMILES)	Intracellular Cumulative Amount [1] [Pmole/cell]	Number of Metastasis Colonies (average), Peroral Administration [2]	Number of Metastasis Colonies (average), Subcutaneous Injection [2]
O=C1O[C@H]([C@@H](O)CO)C(O)=C1OC1O[C@H](CO)[C@@H](O)[C@H](O)[C@H]1O (stereo partly drawn) [2-O-D-Glucopyranosil-L-ascorbic acid]	<0.0003	87.2	90.6
CC(CCC(C(=O)OC1=C(O)C(=O)O[C@@H]1[C@@H]1COC(c2ccccc2)O1)C(C)CC(C)(C)C)CC(C)(C)C (some centres unmarked) [5,6-O-Benzylidene-3-O-[5,7,7-trimethyl-2-(1,3,3-timethylbutyl)]octanoylascorbic acid]	0.0008	87.4	89.6
CCCCC/C=C\C/C=C\C/C=C\C/C=C\CCCC(=O)OC[C@H](O)[C@H]1OC(=O)C(OP(=O)(O)O)=C1O [L-Ascorbic acid 2-phosphate-6-arachidonate]	0.0068	31.4	1.2
O=C1O[C@H]([C@@H](O)COC(=O)c2ccccc2)C(O)=C1OP(=O)(O)O [L-Ascorbic acid 2-phosphate-6-benzoate]	0.0025	80.0	64.4
CCCCCCCCCCCC(=O)OC[C@H](O)[C@H]1OC(=O)C(OP(=O)(O)O)=C1O [L-Ascorbic acid 2-phosphate-6-laurate]	0.0042	48.0	26.8
CCCCCCCC/C=C\CCCCCCCC(=O)OC[C@H](O)[C@H]1OC(=O)C(OP(=O)(O)O)=C1O [L-Ascorbic acid 2-phosphate-6-oleate]	0.0055	29.4	2.8
CCCCCCCCCCCCCCCC(=O)OC[C@H](O)[C@H]1OC(=O)C(OP(=O)(O)O)=C1O [L-Ascorbic acid 2-phosphate-6-palmitate]	0.0072	34.2	2.4
CCCCCCCCCCCCCCCCCC(=O)OC[C@H](O)[C@H]1OC(=O)C(OP(=O)(O)O)=C1O [L-Ascorbic acid 2-phosphate-6-stearate]	0.0034	14.2	8.2
CCCCCCCCCCCCCCCC(=O)OC[C@H](O)[C@H]1OC(=O)C(O)=C1O [L-Ascorbic acid-6-palmitate]	–	85.4	83.0
O=C1O[C@H]([C@@H](O)CO)C(O)=C1O [L-Ascorbic acid]	–	90.8	88.8
O=C1O[C@H]([C@@H](O)CO)C(O)=C1OP(=O)([O-])[O-].[Mg+2] [Magnesium L-ascorbic acid-2-phosphate]	–	89.4	86.8
O=C1O[C@H]([C@@H](O)CO)C(O)=C1OS(=O)(=O)[O-].[Na+] [Sodium L-ascorbic acid-2-sulfate]	–	86.2	85.4
